In PMC6150365, “Simultaneous Determination of Seven Components in Rat Plasma by the UPLC-MS/MS Method and Application of Pharmacokinetic Studies to SimiaoYong’an Decoction” (Molecules : A Journal of Synthetic Chemistry and Natural …, 2017):

Test: Pharmacokinetic study in rats after oral administration of SYD extract and its single and combined TCM extracts (UPLC-MS/MS of plasma)
Conditions: for MRT last: MRT(0–t); for MRT inf: MRT(0–∞); for half-life: t1/2, rat plasma
[1] = male, Sprague-Dawley, rat, plasma, po, 0.68 g/kg, rat plasma, oral GU extract 0.68 g/kg, n = 6
[2] = male, Sprague-Dawley, rat, plasma, po, 2.14 g·kg^−1 (extract), rat plasma, oral LJ + GU extract, n = 6
[3] = male, Sprague-Dawley, rat, plasma, po, 2.43 g/kg, rat plasma, oral AS + GU extract 2.43 g/kg, n = 6
[4] = male, Sprague-Dawley, rat, plasma, po, 3.38 g/kg extract (6.67 g/kg as herbs), rat plasma, oral SN + GU extract, n = 6
[5] = male, Sprague-Dawley, rat, plasma, po, 4.01 g·kg^−1 (extract), rat plasma, oral LJ + AS + GU extract, n = 6
[6] = male, Sprague-Dawley, rat, plasma, po, 4.73 g/kg, rat plasma, oral LJ + SN + GU extract 4.73 g/kg, n = 6
[7] = male, Sprague-Dawley, rat, plasma, po, 8.25 g/kg, rat plasma, oral SYD extract 8.25 g/kg, n = 6

## O=C1C[C@@H](c2ccc(O[C@@H]3O[C@H](CO)[C@@H](O)[C@H](O)[C@H]3O)cc2)Oc2cc(O)ccc21 [Liquiritin, liquiritin]
[1]
  AUC(0-t): 190 ng·h/mL
  MRT last: 1.16 ± 0.01 h
  MRT inf: 1.19 ± 0.01 h
male, Sprague-Dawley, rat, plasma, po, 0.68 g/kg, AUC(0–∞), rat plasma, oral GU extract 0.68 g/kg, n = 6
  AUC(0-inf): 190 ng·h/mL
male, Sprague-Dawley, rat, plasma, po, 0.68 g/kg, Cmax, rat plasma, oral GU extract 0.68 g/kg, n = 6
  Cmax: 270 ng/mL
male, Sprague-Dawley, rat, plasma, po, 0.68 g/kg, Tmax, rat plasma, oral GU extract 0.68 g/kg, n = 6
  Tmax: 0.08 h
male, Sprague-Dawley, rat, plasma, po, 0.68 g/kg, oral GU extract 0.68 g/kg, n = 6
  half-life: 4.41 ± 0.59 h
male, Sprague-Dawley, rat, plasma, po, 2.14 g·kg^−1 (extract), AUC(0–∞), rat plasma, oral LJ + GU extract, n = 6
  AUC(0-inf): 200 ± 60 ng·h/mL
[2]
  MRT last: 2.53 ± 0.56 h
  MRT inf: 13.5 ± 11 h
male, Sprague-Dawley, rat, plasma, po, 2.14 g·kg^−1 (extract), Tmax, rat plasma, oral LJ + GU extract, n = 6
  Tmax: 0.56 ± 0.56 h
male, Sprague-Dawley, rat, plasma, po, 2.14 g·kg^−1 (extract), oral LJ + GU extract, n = 6
  half-life: 12.2 ± 7.3 h
male, Sprague-Dawley, rat, plasma, po, 2.14 g·kg^−1 extract, rat plasma, oral LJ + GU extract, n = 6
  AUC(0-t): 180 ± 60 ng·h/mL
[3]
  AUC(0-t): 220 ± 80 ng·h/mL
  MRT last: 2.3 ± 0.63 h
  MRT inf: 11.1 ± 8.58 h
male, Sprague-Dawley, rat, plasma, po, 2.43 g/kg, AUC(0–∞), rat plasma, oral AS + GU extract 2.43 g/kg, n = 6
  AUC(0-inf): 240 ± 80 ng·h/mL
male, Sprague-Dawley, rat, plasma, po, 2.43 g/kg, Tmax, rat plasma, oral AS + GU extract 2.43 g/kg, n = 6
  Tmax: 0.6 ± 0.5 h
male, Sprague-Dawley, rat, plasma, po, 2.43 g/kg, oral AS + GU extract 2.43 g/kg, n = 6
  half-life: 9.28 ± 5.92 h
[4]
  MRT last: 2.48 ± 0.46 h
  MRT inf: 12.4 ± 9.87 h
male, Sprague-Dawley, rat, plasma, po, 3.38 g/kg extract (6.67 g/kg as herbs), Tmax, rat plasma, oral SN + GU extract, n = 6
  Tmax: 0.42 ± 0.53 h
male, Sprague-Dawley, rat, plasma, po, 3.38 g/kg extract (6.67 g/kg as herbs), oral SN + GU extract, n = 6
  half-life: 7.81 ± 5.31 h
male, Sprague-Dawley, rat, plasma, po, 3.38 g·kg^−1 (extract), rat plasma, oral SN + GU extract, n = 6
  AUC(0-t): 180 ± 50 ng·h/mL
male, Sprague-Dawley, rat, plasma, po, 3.38 g·kg^−1 (extract), AUC(0–∞), rat plasma, oral SN + GU extract, n = 6
  AUC(0-inf): 210 ± 50 ng·h/mL
male, Sprague-Dawley, rat, plasma, po, 3.38 g·kg^−1 extract, Cmax, rat plasma, oral SN + GU extract, n = 6
  Cmax: 150 ± 70 ng/mL
[5]
  AUC(0-t): 220 ± 130 ng·h/mL
  MRT last: 2.41 ± 0.63 h
  MRT inf: 16 ± 11.8 h
male, Sprague-Dawley, rat, plasma, po, 4.01 g·kg^−1 (extract), AUC(0–∞), rat plasma, oral LJ + AS + GU extract, n = 6
  AUC(0-inf): 260 ± 140 ng·h/mL
male, Sprague-Dawley, rat, plasma, po, 4.01 g·kg^−1 (extract), Cmax, rat plasma, oral LJ + AS + GU extract, n = 6
  Cmax: 210 ± 170 ng/mL
male, Sprague-Dawley, rat, plasma, po, 4.01 g·kg^−1 (extract), Tmax, rat plasma, oral LJ + AS + GU extract, n = 6
  Tmax: 0.79 ± 0.29 h
male, Sprague-Dawley, rat, plasma, po, 4.01 g·kg^−1 (extract), oral LJ + AS + GU extract, n = 6
  half-life: 13.7 ± 4.69 h
[6]
  AUC(0-t): 230 ± 160 ng·h/mL
  MRT last: 2.5 ± 0.67 h
  MRT inf: 16.3 ± 12.9 h
male, Sprague-Dawley, rat, plasma, po, 4.73 g/kg, AUC(0–∞), rat plasma, oral LJ + SN + GU extract 4.73 g/kg, n = 6
  AUC(0-inf): 260 ± 170 ng·h/mL
male, Sprague-Dawley, rat, plasma, po, 4.73 g/kg, Tmax, rat plasma, oral LJ + SN + GU extract 4.73 g/kg, n = 6
  Tmax: 0.88 ± 0.31 h
male, Sprague-Dawley, rat, plasma, po, 4.73 g/kg, oral LJ + SN + GU extract 4.73 g/kg, n = 6
  half-life: 13.4 ± 5.15 h
male, Sprague-Dawley, rat, plasma, po, 8.25 g/kg
  AUC(0-inf): 340 ± 210 ng·h/mL
[7]
  AUC(0-t): 290 ± 210 ng·h/mL
  MRT last: 2.89 ± 0.92 h
  MRT inf: 11.3 ± 7.16 h
male, Sprague-Dawley, rat, plasma, po, 8.25 g/kg, Cmax, rat plasma, oral SYD extract 8.25 g/kg, n = 6
  Cmax: 210 ± 170 ng/mL
male, Sprague-Dawley, rat, plasma, po, 8.25 g/kg, Tmax, rat plasma, oral SYD extract 8.25 g/kg, n = 6
  Tmax: 0.88 ± 0.31 h
male, Sprague-Dawley, rat, plasma, po, 8.25 g/kg, oral SYD extract 8.25 g/kg, n = 6
  half-life: 13.4 ± 5.59 h
male, Sprague-Dawley, rat, plasma, po, […], oral SN + AS + GU extract […], n = 6
  half-life: 11.6 ± 5.01 h
Rat plasma, oral AS + GU extract 2.43 g/kg, n = 6
  Cmax: 200 ± 130 ng/mL
Rat plasma, oral LJ + GU extract, n = 6
  Cmax: 140 ± 70 ng/mL
Rat plasma, oral SN + AS + GU extract […], n = 6
  Tmax: 1.00 ± 0.27 h
